Measured values: US20100190856A1, “Novel Polyhydroxylated Compounds as Fatty Acid Synthase (FASN) Inhibitors” (UNIVERSIDAD COMPLUTENSE DE MADRID, priority 2007, published 2010)
Values joined by “and” are separate entries in the source; they are usually repeats but may differ in a detail not shown here. Equal values may be shown once. “Also recorded” adds a separate entry of the source. Read-outs that look alike come from different tables or passages of the source.

What was measured:
[1] = target: T1, rat CPT-1 (Rattus norvegicus, UniProt Q63704); assay: Carnitine palmitoyltransferase 1 (CPT-1) assay, yeast mitochondria; assay type: biochemical; design: % CPT-1 activity: concentration or dose not given beside the values; settings: for % CPT-1 activity: % of DMSO control, mitochondria of P. pastoris expressing rat CPT-1
T1 construct: made in house; host or cells: Pichia pastoris GS115 (isolated intact mitochondria)
T1 sequence (Q63704 1-772): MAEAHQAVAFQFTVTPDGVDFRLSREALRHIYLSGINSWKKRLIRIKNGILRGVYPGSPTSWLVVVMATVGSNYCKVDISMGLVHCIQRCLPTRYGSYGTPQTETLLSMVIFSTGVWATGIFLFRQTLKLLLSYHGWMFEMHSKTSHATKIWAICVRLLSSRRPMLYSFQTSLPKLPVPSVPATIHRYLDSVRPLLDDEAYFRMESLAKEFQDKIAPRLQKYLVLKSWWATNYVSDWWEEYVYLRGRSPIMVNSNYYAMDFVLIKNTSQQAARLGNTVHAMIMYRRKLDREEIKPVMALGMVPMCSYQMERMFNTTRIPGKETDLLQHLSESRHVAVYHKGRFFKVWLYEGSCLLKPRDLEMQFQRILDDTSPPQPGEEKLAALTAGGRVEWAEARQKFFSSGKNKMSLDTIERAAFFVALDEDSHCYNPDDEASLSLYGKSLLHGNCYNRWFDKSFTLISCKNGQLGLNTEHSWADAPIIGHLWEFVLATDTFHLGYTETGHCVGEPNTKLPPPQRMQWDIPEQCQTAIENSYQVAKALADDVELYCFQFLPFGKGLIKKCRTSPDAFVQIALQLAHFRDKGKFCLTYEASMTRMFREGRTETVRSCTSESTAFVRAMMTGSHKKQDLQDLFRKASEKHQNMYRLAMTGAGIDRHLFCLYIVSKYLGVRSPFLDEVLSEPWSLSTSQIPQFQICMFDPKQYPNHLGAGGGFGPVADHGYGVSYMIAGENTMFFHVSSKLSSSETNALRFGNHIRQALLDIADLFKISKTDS
Description: The expression plasmid pRCPT-Iβ/pHW010 (provided by Gebre Woldegiorgis, Beaverton, Oreg. Published in Woldegiorgis G. et al. Biochem. Biophys. Res. Commun. 2004, 325, 660-4.) was linearized in the GAP gene promoter by digestion with AvrII and integrated into the GAPp locus of P. pastoris GS115 by electroporation. Histidine prototrophic transformants were selected on YND plates and grown on YND medium. Mitochondria were isolated by disrupting the yeast cells with glass beads as previously described.
CPT activity was assayed by the forward exchange method using L-[^3H] carnitine as previously described (Nicot, C. et al., Biochem. Biophys. Res. Comm. 2004, 325, 2745-7). In a total volume of 0.5 mL, the standard enzyme assay mixture contained 0.2 mM L-[^3H]carnitine (˜5000 dpm/nmol), 80 μM palmitoyl-CoA, 20 mM HEPES (pH 7.0), 1% fatty acid-free albumin, and 40-75 mM KCl, with or without malonyl-CoA as indicated. Reactions were initiated by addition of isolated intact yeast mitochondria. The reaction was linear up to 4 min, and all incubations were done at 30° C. for 3 min. Reactions were stopped by addition of 6% perchloric acid and were then centrifuged at 2000 rpm for 7 min. The resulting pellet was suspended in water, and the product [^3H]palmitoylcarnitine was extracted with butanol at low pH. After centrifugation at 2000 rpm for 2 min, an aliquot of the butanol phase was transferred to a vial for radioactive counting.

[2] = within 24 h, mice models; cited from earlier work
[3] = system: SK-Br3 breast cancer cells; assay: MTT cytotoxicity assay, SK-Br3 breast cancer cells; assay type: cell-based, human; settings: MTT, 48 h, read-out: IC50, growth inhibition, SK-Br3
Description: (§1) MCF-7 and MDA-MB-231 breast cancer cells were obtained from the American Type Culture Collection (ATCC) and were routinely grown in Dulbecco's modified Eagle's medium (DMEM, Gibco) containing 10% fetal bovine serum (FBS, Bio-Whittaker), 1% L-glutamine, 1% sodium pyruvate, 50 U/mL penicillin and 50 μg/mL streptomycin. SK-Br3 breast cancer cells were obtained from Eucellbank (Universidad de Barcelona, Spain) and were passaged in McCoy's 5 A medium containing 10% FBS, 1% L-glutamine, 1% sodium pyruvate, 50 U/mL penicillin and 50 μg/mL streptomycin. Non-malignant fibroblasts N-1 were obtained from Eucellbank (Universidad de Barcelona, Spain) and were passaged in DMEM medium containing 10% FBS, 1% L-glutamine, 1% sodium pyruvate, 50 U/mL penicillin and 50 μg/mL streptomycin. The cells remained free of Mycoplasma and were propagated in adherent culture according to established protocols. Cells were maintained at 37° C. in a humidified atmosphere of 95% air and 5% CO2.
(§2) Drug sensitivity was determined using a standard colorimetric MTT (3-4,5-dimethylthiazol-2-yl-2,5-diphenyltetrazolium bromide) assay. Briefly, cells were plated out at a density of 7×10^3 cells/100 μL/well in 96-well microtitre plates and allowed an overnight period for attachment. Then the medium was removed and fresh medium along with various concentrations of the tested compound were added to the cultures for a period of 48 h. Following the treatment, the cells were fed with drug-free medium (100 μL/well) and 10 μL of MTT solution (5 mg/mL; Sigma, St. Louis, Mo.), and the incubation was prolonged for 3 h at 37° C. After carefully removing the supernatants, the MTT-formazan crystals formed by metabolically viable cells were dissolved in dimethyl sulphoxide (100 μL/well) and the absorbance was measured at 570 nm in a multi-well plate reader (Model Anthos Labtec 2010 1.7 reader).

[4] = system: MCF-7 breast cancer cells; assay: MTT cytotoxicity assay, MCF-7 breast cancer cells; assay type: cell-based, human; settings: 48 h, read-out: IC50, growth inhibition, MCF-7
Description: as §1, §2

[5] = system: Non-malignant fibroblasts N-1; assay: MTT cytotoxicity assay, non-malignant fibroblasts N-1; assay type: cell-based; settings: for IC50: non-malignant fibroblasts, MTT, 48 h, read-out: IC50, growth inhibition, Fibroblasts; for effects in cell death / morphology changes in non-malignant cells: up to doses three-fold their cytotoxic IC50 value in tumoral cells
Description: as §1, §2

[6] = system: cancer cells overexpressing FASN; settings: cited from earlier work
[7] = rats, oral dose of 56 mg of EGCG; cited from earlier work
[8] = target: T2, FASN (Homo sapiens, UniProt P49327); assay: Fatty acid synthase activity assay in SK-Br3 cells (NADPH oxidation, particle-free supernatants); assay type: cell-based; design: FASN activity, % of control cells / FASN activity reduced to / reduction of FASN activity: concentration or dose not given beside the values; settings: for inhibition of FASN activity (in words): SK-Br3 cells treated 6, 12 and 24 hours; for FASN activity, % of control cells: SK-Br3 cells, 24 h exposure
T2 construct: endogenous in cells; host or cells: SK-Br3 breast cancer cells
Description: FASN activity of compounds a, b, e, f, h, i, k, m and q was assayed in particle-free supernatants by recording spectrophotometrically at 37° C. (Lambda Bio 20, Perkin Elmer, EUA; using UV Kinlab 2.80.02 software) the decrease of A340nm due to the oxidation of NADPH, as we previously described. After 6, 12, 24 h of exposure to the tested compound, the cells were harvested by treatment with trypsin-EDTA solution, pelleted by centrifugation, washed twice and resuspended in cold PBS. The cells were sonicated during 30 min at 4° C. (PSelecta ultrasons) and centrifuged for 15 min at 4° C. to keep supernatants particle-free. A sample was taken to measure the protein content by a BioRad assay (Bio-Rad Laboratories). One-hundred and twenty micrograms of protein were pre-incubated during 15 min at 37° C. in 0.2 M of potassium phosphate buffer, pH 7.0, for temperature equilibration. The sample was then added to the reaction mixture: 200 mM potassium phosphate buffer, pH 7.0, 1 mM EDTA (Sigma), 1 mM dithiothreitol (Sigma), 30 μM acetyl-CoA (Sigma), 0.24 mM NADPH (Sigma), in 0.3 mL reaction volume were monitored at 340 nm for 3 min to measure the background NADPH oxidation. After the addition of 50 μM of malonyl-CoA (Sigma), the reaction was assayed for additional 10 min to determine FASN-dependent oxidation of NADPH. Rates were corrected for the background rate of NADPH oxidation in the presence of acetyl-CoA. FASN activity was expressed in nmol NADPH oxidized min^−1 mg protein^−1.

[9] = system: MDA-MB-231 breast cancer cells; assay: MTT cytotoxicity assay, MDA-MB-231 breast cancer cells; assay type: cell-based, human; settings: MDA-MB-231 cells, 48 h, read-out: IC50, growth inhibition, MDA-MB-231
Description: as §1, §2

[10] = Weight loss in vivo (data not shown)
[11] = Homo sapiens, MCF7, MCF-7 cells

T2 sequence (P49327 whole entry): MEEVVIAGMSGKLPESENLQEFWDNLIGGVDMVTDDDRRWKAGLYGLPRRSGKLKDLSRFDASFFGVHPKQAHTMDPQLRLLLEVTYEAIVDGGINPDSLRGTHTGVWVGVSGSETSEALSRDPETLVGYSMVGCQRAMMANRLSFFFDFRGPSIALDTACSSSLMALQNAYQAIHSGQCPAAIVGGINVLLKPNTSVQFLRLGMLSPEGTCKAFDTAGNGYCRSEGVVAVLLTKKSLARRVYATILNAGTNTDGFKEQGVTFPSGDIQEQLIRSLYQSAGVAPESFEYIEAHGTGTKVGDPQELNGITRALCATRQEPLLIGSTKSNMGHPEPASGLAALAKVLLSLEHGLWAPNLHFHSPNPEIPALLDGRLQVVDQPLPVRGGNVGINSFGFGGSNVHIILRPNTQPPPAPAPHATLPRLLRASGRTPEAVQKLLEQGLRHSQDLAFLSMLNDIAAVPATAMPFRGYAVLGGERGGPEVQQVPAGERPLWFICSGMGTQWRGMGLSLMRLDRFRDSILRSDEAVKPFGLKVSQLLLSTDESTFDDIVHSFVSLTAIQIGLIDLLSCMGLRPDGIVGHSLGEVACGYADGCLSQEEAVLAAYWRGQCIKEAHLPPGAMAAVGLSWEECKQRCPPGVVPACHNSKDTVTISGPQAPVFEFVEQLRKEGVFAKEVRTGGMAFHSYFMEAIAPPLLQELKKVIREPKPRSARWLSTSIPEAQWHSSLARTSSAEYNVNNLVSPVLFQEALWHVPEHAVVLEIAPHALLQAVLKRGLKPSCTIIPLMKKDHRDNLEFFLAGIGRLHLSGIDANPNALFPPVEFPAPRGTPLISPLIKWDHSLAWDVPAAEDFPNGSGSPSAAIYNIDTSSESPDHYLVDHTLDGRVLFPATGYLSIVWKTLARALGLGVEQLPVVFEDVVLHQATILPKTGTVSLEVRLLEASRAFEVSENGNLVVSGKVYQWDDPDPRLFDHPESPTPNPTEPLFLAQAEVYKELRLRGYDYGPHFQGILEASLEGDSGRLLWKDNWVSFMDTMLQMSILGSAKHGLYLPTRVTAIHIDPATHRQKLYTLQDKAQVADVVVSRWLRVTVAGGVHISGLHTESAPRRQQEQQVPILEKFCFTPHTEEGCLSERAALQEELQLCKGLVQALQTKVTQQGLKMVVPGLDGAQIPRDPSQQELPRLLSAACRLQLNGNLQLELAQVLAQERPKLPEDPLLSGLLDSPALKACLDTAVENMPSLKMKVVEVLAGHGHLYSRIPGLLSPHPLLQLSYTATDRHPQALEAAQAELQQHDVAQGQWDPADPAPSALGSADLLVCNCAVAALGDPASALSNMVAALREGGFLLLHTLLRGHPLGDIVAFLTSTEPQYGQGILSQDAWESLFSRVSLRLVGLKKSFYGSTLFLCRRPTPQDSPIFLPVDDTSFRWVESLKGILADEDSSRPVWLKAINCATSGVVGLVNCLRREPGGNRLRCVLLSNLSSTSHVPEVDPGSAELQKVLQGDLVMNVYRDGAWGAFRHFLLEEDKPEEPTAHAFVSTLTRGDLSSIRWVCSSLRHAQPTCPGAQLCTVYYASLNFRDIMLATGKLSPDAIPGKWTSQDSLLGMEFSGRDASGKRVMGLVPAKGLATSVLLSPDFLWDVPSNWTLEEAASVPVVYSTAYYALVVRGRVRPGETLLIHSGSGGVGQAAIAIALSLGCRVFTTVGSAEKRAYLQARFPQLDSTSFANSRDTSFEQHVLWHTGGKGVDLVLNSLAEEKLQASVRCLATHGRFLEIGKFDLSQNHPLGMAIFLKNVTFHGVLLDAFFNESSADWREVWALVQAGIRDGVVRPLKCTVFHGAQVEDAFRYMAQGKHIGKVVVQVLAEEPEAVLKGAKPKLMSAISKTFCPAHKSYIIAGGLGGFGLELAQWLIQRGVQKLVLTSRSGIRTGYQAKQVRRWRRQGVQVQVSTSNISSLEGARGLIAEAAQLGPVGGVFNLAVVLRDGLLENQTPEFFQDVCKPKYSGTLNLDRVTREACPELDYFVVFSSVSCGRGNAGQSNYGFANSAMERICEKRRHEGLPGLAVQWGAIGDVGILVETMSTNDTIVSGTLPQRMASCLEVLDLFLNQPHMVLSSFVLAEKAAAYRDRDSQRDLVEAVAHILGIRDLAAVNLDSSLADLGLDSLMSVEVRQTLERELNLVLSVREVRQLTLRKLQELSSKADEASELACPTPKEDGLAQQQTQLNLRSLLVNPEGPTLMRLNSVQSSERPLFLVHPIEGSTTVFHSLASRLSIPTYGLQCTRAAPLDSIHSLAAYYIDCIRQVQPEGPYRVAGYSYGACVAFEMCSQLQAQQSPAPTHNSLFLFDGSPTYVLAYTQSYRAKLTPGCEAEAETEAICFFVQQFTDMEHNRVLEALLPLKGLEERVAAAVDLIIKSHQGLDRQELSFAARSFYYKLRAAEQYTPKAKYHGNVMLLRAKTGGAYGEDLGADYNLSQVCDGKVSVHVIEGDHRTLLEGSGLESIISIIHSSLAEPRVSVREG

C=C1C(=O)O[C@H](CCCCCCCC)[C@H]1C(=O)O [Compound C75, (2R,3S)-4-methylene-2-octyl-5-oxotetrahydrofuran-3-carboxylic acid, reference compound]
stimulation of CPT-1 activity (in words) [1]: stimulates CPT-1 activity | loss of body mass [2]: up to 12%

O=C(O[C@@H]1Cc2c(O)cc(O)cc2O[C@@H]1c1cc(O)c(O)c(O)c1)c1cc(O)c(O)c(O)c1 [EGCG, (−)-epigallocatechin-3-gallate, reference compound]
IC50 [3]: 150 µM and 149 µM | IC50 ([4]; MCF-7 cells): 205 ± 7.1 µM | % CPT-1 activity [1]: 81 ± 4% | IC50 [5]: 125 µM | effects in cell death / morphology changes in non-malignant cells [5]: massive cell death | inhibitory ability lower than that of C75 and cerulenin [6]: 4 fold | EGCG absorbed [7]: 0.012% | inhibition of FASN activity (in words) [8]: inhibit FASN activity; also recorded: decreased in a time-dependent manner | IC50 [9]: 197 ± 15.3 µM

O=C(Oc1cc2ccccc2cc1OC(=O)c1cc(O)c(O)c(O)c1)c1cc(O)c(O)c(O)c1 [e, 2,3-bis[(3,4,5-trihydroxybenzoyl)oxy]naphthalene]
IC50 ([3]; Homo sapiens, SK-BR-3, 48 h): 76.5 ± 9.2 µM | IC50 [4, 11]: 89 ± 28.7 µM | stimulation of CPT-1 activity (in words) [1]: did not stimulate CPT-1 activity | % CPT-1 activity [1]: 87.91 ± 7% | melting point: 182 to 183 °C | inhibition of FASN activity (in words) [8]: inhibit FASN activity; also recorded: decreased in a time-dependent manner | FASN activity, % of control cells [8]: 69% | weight loss in vivo [10]: without inducing weight loss in vivo | IC50 ([9]; Homo sapiens): 136 ± 26.9 µM

O=C(Oc1ccc(OC(=O)c2cc(O)c(O)c(O)c2)c(-c2ccccc2)c1)c1cc(O)c(O)c(O)c1 [o, 2,5-bis[(3,4,5-trihydroxybenzoyl)oxy]-1,1′-biphenyl]
IC50 ([3]; Homo sapiens, SK-BR-3, 48 h): 17.5 ± 2.6 µM | IC50 [4, 11]: 10 ± 2.8 µM | stimulation of CPT-1 activity (in words) [1]: did not | % CPT-1 activity [1]: 86.80 ± 14% | melting point: 114 to 116 °C | IC50 ([9]; Homo sapiens): 40 ± 2.8 µM

O=C(Oc1ccc(-c2ccc(OC(=O)c3cc(O)c(O)c(O)c3)cc2)cc1)c1cc(O)c(O)c(O)c1 [q, 4,4′-bis[(3,4,5-trihydroxybenzoyl)oxy]-1,1′-biphenyl]
IC50 ([3]; Homo sapiens, SK-BR-3, 48 h): 4 ± 1 µM | IC50 [3]: 4.4 ± 1.4 µM | IC50 [4, 11]: 2.5 ± 0.1 µM | stimulation of CPT-1 activity (in words) [1]: did not stimulate CPT-1 activity | % CPT-1 activity [1]: 84.38 ± 4% | IC50 ([5]; Fibroblast): 13 ± 4 µM | effect on non-malignant cells / normal fibroblasts ([5]; at concentrations similar to IC50): not affected | effects in cell death / morphology changes in non-malignant cells [5]: No significant effects | inhibition of FASN activity (in words) [8]: inhibit FASN activity; also recorded: decreased in a time-dependent manner | FASN activity, % of control cells [8]: 20% | reduction of FASN activity ([8]; after 24 h of cell exposure): 50% | weight loss in vivo [10]: without inducing weight loss in vivo | IC50 ([9]; Homo sapiens): 5.2 ± 3.5 µM
